Results reported in PubChem BioAssay AID179 (DTP/NCI, 2004).
Several values for one entry are separate records, joined by “and”; a condition that tells them apart may be missing. Equal entries are not always repeated. Activity calls are given as the source filed them.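 How the source made its calls: active means compounds giving half or more protection of infected cells from virus-caused growth loss, again on retest; inactive means the rest.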

Tested on: CEM cells HIV-1 protection, formazan growth assay
Test: NCI AIDS Antiviral Assay
Details: for IC50: measured here: growth of uninfected CEM cells
Procedure, shortened: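 Human CEM cells, uninfected and HIV-1-infected, exposed to five drug concentrations; growth measured by soluble formazan assay and scored as percent protection from infection, with protecting compounds retested.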

Structure (SMILES)	EC50 [µM]	IC50	outcome
N=c1nnc(=O)c2c(s1)-n1ncc(C(=O)O)c1NN2	> 81.3	> 81.3 µM	–
O=C1Cn2nc(C(=O)c3ccccc3C#Cc3ccccc3)c(-c3ccccc3)c2-c2ccccc21	> 38.9	> 38.9 µM	–
O=C1NCc2ccccc2S(=O)(=O)n2cccc21	> 200	120 µM	–
O=[N+]([O-])c1cc(Cl)ccc1S(=O)(=O)c1ccc(Cl)cc1[N+](=O)[O-]	–	–	inactive
Cc1ccc(/C=N/Nc2nncc3ccccc23)s1	> 200	> 200 µM	–
O=S(=O)(O)c1cc(N=Nc2cc(S(=O)(=O)O)c3cccnc3c2O)ccc1/C=C/c1ccc(N=Nc2cc(S(=O)(=O)O)c3cccnc3c2O)cc1S(=O)(=O)O (tested in a mixture with another compound)	2.95	50.1 µM	–
O=S(=O)(O)c1cc(N=Nc2cc(S(=O)(=O)O)c3cccnc3c2O)ccc1C(O)C(O)c1ccc(N=Nc2cc(S(=O)(=O)O)c3cccnc3c2O)cc1S(=O)(=O)O (centres undefined)	11.2	> 200 µM	–
C=C[C@@]1(O)CCCC[C@@H]1CC(Sc1ccccc1)Sc1ccccc1	> 200	19.5 µM	–
N#C/C(=C\c1cc(Br)cc(Br)c1O)c1ccc([N+](=O)[O-])cc1	> 100	13.5 µM	–
CS(=O)(=O)N1CC(CCl)c2ccc([N+](=O)[O-])cc21 (centres undefined)	91.2	> 200 µM	–
COC(=O)C1Cc2c([nH]c3ccccc23)C=N1 (centres undefined)	–	–	inactive
CCN(/N=C1\CC2C=CCN(C2)C(=O)Cc2c1[nH]c1ccccc21)S(=O)(=O)c1ccc(C)cc1 (centres undefined)	> 63.1	60.3 µM	–
Cc1cn(C2CCC(CO)(C(F)(F)F)O2)c(=O)[nH]c1=O (centres undefined)	> 200	> 200 µM	–
CCc1ccccc1C1(Br)C(=O)c2ccccc2C1=O	> 200	45.7 µM	–
CC12CCC([C@H](N3CCOCC3)/C1=N\OCCN1CCCC1)C2(C)C (some centres undefined)	> 251	138 µM	–
O=C1c2ccccc2CC1(Br)C(Br)c1ccccc1 (centres undefined)	> 200	10.7 µM and 10 µM	–
CCOC(=O)C1=NN(c2ccccc2)C(=O)/C1=C\N1C(=O)/C(=C/c2cccc(OC)c2O)SC1=S	> 100	53.7 µM	–
Nc1ccc(N=Nc2ccc(/C=C/c3ccc(N=Nc4ccc(N)c5ccccc45)cc3S(=O)(=O)O)c(S(=O)(=O)O)c2)c2ccccc12	> 50.1	37.2 µM	–
CCCc1nn(C)c(CCC(=O)N(Cc2ccccc2)Cc2ccccc2)c1CC	–	–	inactive
CCN(CC)c1ccc(C(=C2C=CC(=[N+](CC)CC)C=C2)c2ccc(N(CC)CC)cc2)cc1	–	–	inactive
CC(C)c1cccc(C(C)C)c1N1C(=O)C(=O)C(c2nc3ccccc3o2)C(=O)C1=O	–	–	inactive

Structure (SMILES)	EC50 [µM]	IC50	outcome
BrCC[N+]12CC[N+](CCBr)(CC1)C2	> 525	25.7 µM	–
COc1ccc2c(c1OC)Oc1c(OC)ccc3c1C(C2)N(C)C[C@@H]3O (some centres undefined)	> 251	> 251 µM	–
O=C(O)c1c(CC(Cc2ccccc2)C(=O)O)ccc2c1CCC2 (centres undefined)	> 200	> 200 µM	–
C=CCCCCCCCCC(=O)NCc1nc2ccccc2[nH]1	> 200	29.5 µM	–
CCC1C(=O)N(C)c2ccccc21 (centres undefined)	> 200	117 µM and 33.1 µM	–
O=C1NC(=O)C(Cc2ccccc2Cl)N1 (centres undefined)	> 200	> 200 µM	–
C#CCOC(=O)[C@@H](C)c1ccc2cc(OC)ccc2c1	> 200	47.9 µM	–
COc1ccc(-n2c(=O)[nH]n(C(C)=O)c2=O)cc1	> 200	> 200 µM	–
N#CCCCCC12C3C(=O)N(c4ccccc4)C(=O)C3ON1O[C@@H]1C(=O)N(c3ccccc3)C(=O)[C@@H]12 (some centres undefined)	> 200	> 200 µM	–
C=C1C(=O)OC2C3C(=C)[C@@H](OC(C)=O)CC3C(C)=CC(OC(=O)C(C)(O)C(C)OC(C)=O)[C@@H]12 (some centres undefined)	> 200	> 200 µM	–
C/C(CC(O)(C(F)(F)Cl)C(F)(F)Cl)=N\NC(N)=S	> 200	110 µM	–
O=C(/C=C/c1ccc(O)c(O)c1)c1cc(O)cc(O)c1	> 200	15.1 µM	–
CCOC(=O)c1ccc(N=NC2Sc3nc4ccccc4n3C2=O)cc1 (centres undefined)	–	–	inactive
O=C(O)c1cc(=O)c2cc3c(cc2o1)OCc1ccccc1-3	> 93.3	> 93.3 µM	–
CC(C)(C)C1CCC2(CC1)c1[nH]c3ccccc3c1C1(CCC(C(C)(C)C)CC1)c1[nH]c3ccccc3c12 (centres undefined)	> 7.41	> 7.41 µM	–
COc1cccc2c(=O)oc(-c3ccc(C(C)(C)C)cc3)nc12	> 200	64.6 µM	–
Cc1cn(C2CC(CO)N(CCO)O2)c(=O)[nH]c1=O (centres undefined)	> 200	> 200 µM	–
Cc1ccccc1SCc1nc2ccccc2c(C)[n+]1[O-]	21.9	102 µM	–
N#CCCN(CCC#N)c1ccc(/C=C2\N=C(CN3C(=O)c4ccccc4C3=O)OC2=O)cc1	> 79.4	> 79.4 µM	–
O=C1NN(Cc2ccccc2)C(=O)N2CCC[C@@H]12	> 200	> 200 µM	–
O=C1CC(c2ccccc2)NN1c1ccccc1 (centres undefined)	–	–	inactive

Structure (SMILES)	EC50 [µM]	IC50	outcome
COc1cccc(CCCNC(=O)Cc2ccccc2CO)c1	> 200	> 200 µM	–
CC(CCC(=O)O)(CCC(=O)O)[N+](=O)[O-]	> 1150	> 1150 µM	–
COC(=O)C1=NC(=S)NC(c2ccccc2)C1c1nc2ccccc2s1 (centres undefined)	–	–	inactive
COc1c2c(c(N)c3ccc(=O)oc13)CCO2	> 126	> 126 µM	–
C=CCN(Cc1ccncc1)C(=O)C(O)(c1ccccc1)c1ccccc1	> 200	186 µM	–
COc1ccc(S(=O)(=O)N[C@H](C(=O)O)c2ccccc2)cc1	–	–	inactive
[N-]=[N+]=NC1(Cc2ccccc2)C(=O)c2cccc3c2N(CCC3)C1=O (centres undefined)	–	–	inactive
Cc1nc2ccc(NC(=S)Nc3ccccc3)cc2c(=O)n1-c1ccccc1	> 200	> 200 µM	–
CN(C)CCCNC(=O)CCNC(=O)c1cc(NC(=O)c2cc(NC(=O)c3cc(NC(=O)c4nccn4C)cn3C)cn2C)cn1C	> 200	17 µM	–
CCC/C=[N+](\[O-])[C@@H]1CC(n2cc(C)c(=O)[nH]c2=O)OC1CO[Si](C)(C)C(C)(C)C (some centres undefined)	> 200	107 µM	–
O=C(O)CCCC(=O)Nn1c(Cc2ccc(Cl)cc2)n[nH]c1=O	> 200	> 200 µM	–
S=c1[nH][nH]c(=S)c2[nH]cnc12	> 141	> 141 µM	–
COC(=O)/C(C#N)=C(\N)C(Cl)(Cl)Cl	–	–	inactive
CC(O)(c1ccccc1)c1nccc2ccccc12 (centres undefined)	> 200	77.6 µM	–
Clc1cc(Cl)cc(C2ON=C(c3ccccc3)N2C23CC4CC(CC(C4)C2)C3)c1 (centres undefined)	> 200	> 200 µM	–
Oc1cccc2cc(Br)cnc12	> 20	5.01 µM	–
O=c1c(Nc2ccccc2)cn(CCOc2ccccc2)c(=O)n1CCOc1ccccc1	> 200	> 200 µM	–
Cc1ccc(N=Nc2c(O)c(S(=O)(=O)O)cc3cc(S(=O)(=O)O)ccc23)c(C)c1	–	–	inactive
C(=N\Nc1nnc(-c2nnc(N/N=C/c3ccccc3)o2)o1)/c1ccccc1	> 200	> 200 µM	–
CCc1cn(C2CC(CO)C(CO)S2)c(=O)[nH]c1=O (centres undefined)	> 200	> 200 µM	–
CCOC(=O)c1ccc(NC(=O)Nc2ccc(Cl)cn2)cc1	> 200	> 200 µM	–
